What was measured:
HeLa = experiment: MTT cytotoxicity assay, HeLa; type: cell-based, human; conditions: for IC50: 24 h incubation; for SF (selectivity factor) HeLa: ratio of IC50 for HEK-293 to IC50 for HeLa
Method: (§1) Cytotoxicity studies were performed for all the synthesized quinoxaline compounds (7a–7g) using standard 3-(4,5-dimethylthiazol-2-yl)-2,5-diphenyltetrazolium bromide (MTT) assay beside a panel of cancer cell lines such as human epithelioid cervix carcinoma (HeLa), human colorectal adenocarcinoma cell line (Caco-2) and one normal human embryonic kidney cells (HEK-293) in triplicates (Table 3). […] It is noteworthy to mention that Compound 7a and 7g presented best cytoselectivity in HeLa and Caco-2 cell lines respectively. […]
(§2) In vitro cytotoxic activities (MTT assay):
(§3) The basic detection of cytotoxicity of anticancer compounds in vitro is MTT assay. The MTT proliferation assay is based on the reduction of the yellow MTT tetrazolium salt (3-[4,5-dimethylthiazol-2-yl]-2,5diphenyltetrazolium bromide) by mitochondrial dehydrogenases to form a purple MTT formazan crystals in viable cells. Synthesized compounds (7a-g) were prior dissolved in 0.1% DMSO and then serial dilution with medium and used in the experiment. Three different types of cancer cell lines were used in this experiment i.e., human Epitheloid Cervix Carcinoma (HeLa), human colon cancer cell line (Caco-2) and one normal kidney cell (HEK-293) were used in the assay. The cells were harvested at the log phase and it is cell counted using haemocytometer. Approximately 1 × 10^3 cells per well were seeded using all the cell lines. They were cultured in 100 μL of a DMEM media in 96-well plates and incubated at 37 °C for 24 hours under a 5% CO2 atmosphere. The cells were then washed with 1X PBS buffer and fresh media was added to the cells. The cells were then treated with different concentrations of the drugs (0.65-150 µM) in the volume of […] /well. Cisplatin has been used as a standard positive control drug. The control wells contains the same cell count of 1 × 10^3 cells per well of 100 μL medium containing 0.1% DMSO. After 24 h (for HeLa cell and HEK-293) and 72 h (for Caco-2), the medium was discarded and it is washed with 1X PBS and it was incubated with 100 µl of MTT reagent (1 mg/ml) for 4 h at 37°C.
(§4) Then the 96 well plate was placed on the shaker for 10 min and subsequently the absorbance was recorded by the ELISA reader at λ = 490 nm. The experiments were performed in […]
(§5) triplicate. […]

HEK-293 = experiment: MTT cytotoxicity assay, HEK-293 normal cells; type: cell-based, human; conditions: 24 h incubation
Method: as §1, §2, §3, §4, §5

[1] = MTT cytotoxicity assay, Caco-2; type: cell-based, human; conditions: human, Caco-2, ratio of IC50 for HEK-293 to IC50 for Caco-2; read-out: SF (selectivity factor) Caco-2
Excerpt: as §2
as §3, with “/well.” for “/well. Cisplatin has been used as a standard positive control drug. The control wells contains the same cell count of 1 × 10^3 cells per well of 100 μL medium containing 0.1% DMSO. After 24 h (for HeLa cell and HEK-293) and 72 h (for Caco-2), the medium was discarded and it is washed with 1X PBS and it was incubated with 100 µl of MTT reagent (1 mg/ml) for 4 h at 37°C.”
(§6) The control wells contains the same cell count of 1 × 10^3 cells per well of 100 μL medium containing 0.1% DMSO. After 24 h (for HeLa cell and HEK-293) and 72 h (for Caco-2), the medium was discarded and it is washed with 1X PBS and it was incubated with 100 µl of MTT reagent (1 mg/ml) for 4 h at 37°C.
as §4, §5

Caco-2 = experiment: MTT cytotoxicity assay, Caco-2; type: cell-based, human; conditions: Homo sapiens, Caco-2; 72 h incubation
Excerpt: as §2
as §3, with “/well.” for “/well. Cisplatin has been used as a standard positive control drug. The control wells contains the same cell count of 1 × 10^3 cells per well of 100 μL medium containing 0.1% DMSO. After 24 h (for HeLa cell and HEK-293) and 72 h (for Caco-2), the medium was discarded and it is washed with 1X PBS and it was incubated with 100 µl of MTT reagent (1 mg/ml) for 4 h at 37°C.”
as §6, §4, §5

[2] = Fluorescence quantum yield in water; type: physicochemical; conditions: 298 K, quinine sulphate as standard
Method: To know the absorption and emission behaviour of these synthesized compounds (7a–g), a standard concentration (3 × 10^−6 mol l^−1) in water has been used. In UV-vis spectra, λmax of all these compounds are observed at 320–330 nm due to π–π* transition (Fig. S1a ^†). The corresponding emission peaks are observed at 400–500 nm (Fig. S1b ^†). The emission of quantum yield (Φ) was calculated for all of the compounds (7a–g) using eqn (1) (Table S1 ^†). […]
2.6.2. Fluorescence study:
To know the emission property of all the synthesized complexes (7a-g), an initial investigation was performed using spectrofluorometric method in water by using absorption maximum as their excitation energy. Fluorescence quantum yield (Ф) of all the prepared compounds performed in water solution were calculated by employing the comparative William's method which involves the use of well-characterized standard with the known quantum yield value. Quinine sulphate was used as reference fluorophore excited at 350 nm and emission at 452 nm, quantum yield (ФR) = 0.50 in 1N H2SO4. The gradients of the plots are proportional to the quantum yield (Ф) of the studied system. The data obtained and quantum yield value calculated according to the equation (2): […]
Where, φ = Quantum yield, I = Peak Area, OD = absorbance at λmax, η = Refractive index of solvent and reference. Here, we have used Quinine Sulphate as a standard for calculating emission of quantum yield. […]

Row | Compound | Φ, emission quantum yield [2] | melting point | IC50 (HeLa) | IC50 (HEK-293) | selectivity ratio [1] | IC50 (Caco-2) | IC50 (HeLa; Homo sapiens, HeLa) | SF (selectivity factor) HeLa (HeLa) | IC50 (HEK-293; Homo sapiens, HEK293)
1 | N.N.[Cl][Pt][Cl] [Cisplatin, reference compound] |  |  | 14.5 ± 0.8 µM | 50 ± 1.2 µM |  |  |  |  | 
2 | Brc1ccc2nc(COc3ccccc3-c3nc4ccccc4s3)c(COc3ccccc3-c3nc4ccccc4s3)nc2c1 [Compound 7b] | 0.017 | 145 °C |  |  | 1.28 | 109 ± 0.8 µM | > 100 µM | < 1.4 | 140 ± 1.4 µM
3 | Clc1ccc2nc(COc3ccccc3-c3nc4ccccc4s3)c(COc3ccccc3-c3nc4ccccc4s3)nc2c1 [Compound 7c] | 0.017 | 150 °C |  |  | 2.13 | 75 ± 3.5 µM | 68.61 ± 0.2 µM | 2.3 | 160 ± 2.1 µM

The next lines start with results.

Row | Φ, emission quantum yield [2] | melting point | Compound | IC50 (HeLa) | IC50 (HEK-293) | selectivity ratio [1] | IC50 (Caco-2) | IC50 (HeLa; Homo sapiens, HeLa) | SF (selectivity factor) HeLa (HeLa) | IC50 (HEK-293; Homo sapiens, HEK293)
4 | 0.006 | 130 to 135 °C | c1ccc(-c2nc3ccccc3s2)c(OCc2nc3ccccc3nc2COc2ccccc2-c2nc3ccccc3s2)c1 [Compound 7a] |  |  | 1.71 | 69.8 ± 0.8 µM | 73.1 ± 1.7 µM | 1.6 | 120 ± 0.9 µM
5 | 0.04 | 135 to 139 °C | Fc1ccc2nc(COc3ccccc3-c3nc4ccccc4s3)c(COc3ccccc3-c3nc4ccccc4s3)nc2c1 [Compound 7d] |  |  | > 2.17 | 92 ± 4.9 µM | 117 ± 5.4 µM | >1.7 | > 200 µM
6 | 0.014 |  | Fc1cc2nc(COc3ccccc3-c3nc4ccccc4s3)c(COc3ccccc3-c3nc4ccccc4s3)nc2cc1Cl [Compound 7f] |  |  | > 2 | > 100 µM | 44.3 ± 0.3 µM | >4.5 | > 200 µM

Reference: PMC9061853, “Luminescent bis(benzo[d]thiazolyl)quinoxaline: facile synthesis, nucleic acid and protein BSA interaction, live-cell imaging, biopharmaceutical research and cancer theranostic application” (RSC Advances, 2019)
